From US10154994B2, “Ophthalmic formulations of tyrosine kinase inhibitors, methods of use thereof, and preparation methods thereof” (Allgenesis Biotherapeutics Inc., priority 2015, dated 2018)
Counter-ions that a name gives are not always drawn. Like-named read-outs stand apart in the source and are kept apart here.

Tested on: cornea suture-induced neovascularization
Details: for CNV Branching / CNV Length / CNV Area (~%): 6 eyes; for CNV Area (~%): percentage estimate of involved corneal circumference
Description: For this study, New Zealand white rabbits at approximately 5 months old with no visible signs of ocular defects were selected. Suture placement was performed on Day 1. Prior to surgery, the right eye of each animal was dilated using a mydriatic agent (1% tropicamide), and the conjunctiva was flushed with approximately 10 mL benzalkonium chloride (Zephiran™) diluted in sterile water, U.S.P. to 1:10,000 (v/v). Saline (0.9%) was also used to flush the eye along with benzalkonium chloride. Animals were anesthetized with isoflurane/oxygen during the procedure. Hydration of the eyes was maintained by irrigation with saline solution, as needed. The procedure was conducted under a dissecting or surgical microscope. The cornea of the right eye was exposed using an eyelid speculum. The central corneal area was appropriately marked as considered necessary by the surgeon. […] The outer point of suture placement was chosen near the limbus (1-2 mm), and the inner suture point was chosen near the corneal center, equidistant from the limbus, to obtain standardized angiogenic responses. The left eye remained untreated.
The study design is shown below in Table 7:
Dose formulations were administered by subconjunctival injection to the sutured right eye of each animal of the Avastin control group (5 mg) on Days 1 and 7, at a dose volume of 200 μL/dose immediately post suture placement. Dose formulations were given three times daily (TID) for the group administered with suspension vehicle, 0.3% Axitinib, 0.3% Nintedanib Ethanesulfonate, or 0.3% Sorafenib Tosylate for a duration of 14 days. […] The dosing volume was one 35 μL drop per dose. After the dose was administered, the upper and lower eyelids were gently held together to prevent the loss of material and to distribute the dose across the eye.
Ocular imaging and neovascularization assessments were performed once pre-treatment, and also once on Days 7 and 14. A pre-anesthetic cocktail of Ketamine (15 mg/kg) and Dexmedetomidine (0.25 mg/kg) was administered subcutaneously, and the animals were maintained with isoflurane/oxygen mix prior to and during the procedure. Still images of the cornea were taken from both eyes (from the center of each eye, nasally and temporally). Images were evaluated qualitatively and quantitatively to assess the degree of corneal neovascularization (CNV), and to determine the area affected by CNV. The length of the vessel incursion was measured from the limbus to the distal end of the encroaching CNV using a digital micrometer (in millimeters) for each selected image. Qualitative assessments included the percentage estimate of involved corneal circumference (using multiple images as necessary), and vessel branching.

[1] = topical TID for 14 days, study conclusion

Compound | CNV Branching (Day 7) | CNV Length (Day 7) | CNV Area (~%) (Day 7) [%] | corneal neovascularization observed (Day 14) | CNV Branching (Day 14) | CNV Length (Day 14) [mm] | CNV Area (~%) (Day 14) [%] | CNV Branching (Pre) | CNV Length (Pre) [mm] | CNV Area (~%) (Pre) [%] | corneal neovascularization observed (Day 7 and Day 14) | corneal neovascularization observed (Day 7) | efficacy compared with Avastin (Day 7) | efficacy compared with Avastin (vessel length, surface area and vessel branching; words) (Day 15) | tolerability in the CNV study (rabbit, in vivo) | efficacy versus Avastin in preventing or slowing CNV progression (study conclusion) | efficacy in preventing or slowing CNV progression [1] | tolerability in the CNV study (topical TID for 14 days)
Avastin: active control, 5 mg/eye by subconjunctival injection | 0 | 0 mm | 0 | minimal CNV | 1 | 0.45 | 13 | 0 | 0 | 0 | – | – | – | – | – | – | – | –
CNC(=O)c1cc(Oc2ccc(NC(=O)Nc3ccc(Cl)c(C(F)(F)F)c3)cc2)ccn1 [Sorafenib Tosylate] | – | – | – | – | – | – | – | – | – | – | Slight corneal neovascularization | – | – | – | – | – | – | –
COC(=O)c1ccc2c(c1)NC(=O)/C2=C(\Nc1ccc(N(C)C(=O)CN2CCN(C)CC2)cc1)c1ccccc1 [Nintedanib Ethanesulfonate] | very slight to moderate | approximately 0.5 mm | ~20 | sparse | no branching | – | – | – | – | – | – | not observed | comparable to one given Avastin | slightly more efficacious | well-tolerated | more efficacious, or at least comparable to Avastin | efficacious in preventing or slowing CNV progression | –
CNC(=O)c1ccccc1Sc1ccc2c(/C=C/c3ccccn3)n[nH]c2c1 [Axitinib] | very slight to moderate | approximately 0.5 mm | ~20 | – | – | – | – | – | – | – | – | not observed | – | – | – | – | efficacious in preventing or slowing CNV progression | well-tolerated
